# Assay results from paper PMC5488394, “30 YEARS OF THE MINERALOCORTICOID RECEPTOR: Mineralocorticoid receptor antagonists: 60 years of research and development” (The Journal of Endocrinology, 2017).
# pIC50: −log10 of the molar value. Read-outs that look alike come from different tables or passages of the source.
# Assays:
# [1] = target: T1, ligand binding domain of MR (Homo sapiens, UniProt P08235); test: functional cell-based MR transactivation assay in CHO-K1 cells; details: duplicate
# T1 construct: expressed in transfected cells; host or cells: CHO-K1
# T1 sequence (P08235 726-964 limits assumed): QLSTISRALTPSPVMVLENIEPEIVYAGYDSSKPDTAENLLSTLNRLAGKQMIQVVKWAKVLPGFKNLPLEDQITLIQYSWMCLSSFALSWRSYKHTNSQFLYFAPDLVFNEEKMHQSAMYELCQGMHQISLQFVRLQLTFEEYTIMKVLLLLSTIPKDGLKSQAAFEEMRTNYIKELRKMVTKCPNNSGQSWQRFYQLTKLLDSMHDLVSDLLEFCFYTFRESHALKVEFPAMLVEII
# [2] = test system: S810L MR mutant; parameters: method as in Geller et al. 2000, Amazit et al. 2015; details: ref Geller et al. 2000, Amazit et al. 2015; cited from earlier work
# [3] = test system: MR; parameters: method as in Amazit et al. 2015; details: ref Amazit et al. 2015; cited from earlier work
# [4] = test system: SRC-1 recruitment at the promoter of the SCNN1A gene; parameters: method as in Amazit et al. 2015; details: ref Amazit et al. 2015; cited from earlier work
# [5] = quantitative whole-body autoradiography, [14C]-labeled, healthy rats; ref Kolkhof et al. 2014; cited from earlier work
# [6] = test system: DOCA/salt rats; parameters: method as in Kolkhof et al. 2014; details: ref Kolkhof et al. 2014, cited from earlier work
# [7] = test system: mouse model of pressure overload-induced HF; parameters: method as in Grune et al. 2016; details: ref Grune et al. 2016; cited from earlier work
# [8] = parameters: method as in Pitt et al. 2013; details: ref Pitt et al. 2013, cited from earlier work
# [9] = parameters: method as in Filippatos et al. 2016; details: 1066 HFrEF patients; ref Filippatos et al. 2016; cited from earlier work
# [10] = cited from earlier work; for absolute change in nocturnal BP: day 90, patients with nocturnal hypertension, ref Ruilope et al. 2016
# [11] = test system: MR vs all other steroid hormone receptors; details: ref Bärfacker et al. 2012, Pitt et al. 2012; cited from earlier work
compound,measurement,setting,value
CCOc1ncc(C)c2c1[C@H](c1ccc(C#N)cc1OC)C(C(N)=O)=C(C)N2 [finerenone],pIC50,"[1]; agonist DOCA 10 nM, read-out: IC50 vs DOCA as agonist",7.34
same,pIC50,"[1]; agonist corticosterone 1 nM, read-out: IC50 vs corticosterone as agonist",7.62
same,pIC50,"[1]; agonist cortisol 10 nM, read-out: IC50 vs cortisol as agonist",8.30
same,effect on S810L MR mutant,[2],block
same,delay of aldosterone-induced nuclear translocation of MR,[3],more efficiently than spironolactone
same,mode of action on SRC-1 recruitment,[4],inverse agonist
same,distribution into cardiac and kidney tissues,[5],balanced distribution
same,systolic blood pressure vs 100 mg/kg eplerenone,"[6]; 10 mg/kg finerenone, head-to-head",significantly lower
same,"reduction of cardiac hypertrophy, pro-BNP and proteinuria vs eplerenone",[6]; equinatriuretic doses,more efficiently than eplerenone
same,prevention of myocardial hypertrophy vs eplerenone,[7],more pronounced prevention of myocardial hypertrophy
same,"decrease of BNP, NT-pro-BNP and urinary albumin vs spironolactone",[8]; 5 and 10 mg OD vs spironolactone 25 or 50 mg/day,at least as effective as spironolactone
same,incidence of hyperkalemia vs spironolactone,[8]; 5 and 10 mg OD,significantly lower incidence
same,increases in serum potassium vs spironolactone,[8]; 5 and 10 mg OD,significantly lower increases
same,outcome including death and CV hospitalization vs eplerenone,[9],nominally improved outcome
same,absolute change in nocturnal BP,[10]; 10 mg dose group,−9.5 mmHg
same,absolute change in nocturnal BP,[10]; 20 mg dose group,−12.0 mmHg
same,albuminuria,"[10]; 7.5, 10, 15 and 20 mg, 90 days, on top of SoC, ref Bakris et al. 2015","dose-dependent, significant reductions"
same,selectivity toward MR,[11],at least 500 fold
